# Reference: patent US9062124B2, “GIP-based mixed agonists for treatment of metabolic disorders and obesity” (priority 2008, dated 2015)
# Where a SMILES comes first, the peptide text is derived from it. [ ]: non-standard residue; d: D form. Dab = NCC[C@H](N)C(=O)O; Aib = CC(C)(N)C(=O)O
# Experiments:
# Format in all cases: cell-based
# [1] = biological target: T1, glucagon receptor (Homo sapiens, UniProt P47871); assay: cAMP synthesis functional assay (firefly luciferase reporter in HEK293 cells), glucagon receptor; details: for EC50: Glucagon Receptor EC50, cAMP luciferase reporter assay as in Example 16; for Glucagon Receptor relative activity: relative to the standard (Std.) EC50 of the same run
# T1 construct: expressed in transfected cells; host or cells: HEK293
# T1 sequence (P47871 26-477): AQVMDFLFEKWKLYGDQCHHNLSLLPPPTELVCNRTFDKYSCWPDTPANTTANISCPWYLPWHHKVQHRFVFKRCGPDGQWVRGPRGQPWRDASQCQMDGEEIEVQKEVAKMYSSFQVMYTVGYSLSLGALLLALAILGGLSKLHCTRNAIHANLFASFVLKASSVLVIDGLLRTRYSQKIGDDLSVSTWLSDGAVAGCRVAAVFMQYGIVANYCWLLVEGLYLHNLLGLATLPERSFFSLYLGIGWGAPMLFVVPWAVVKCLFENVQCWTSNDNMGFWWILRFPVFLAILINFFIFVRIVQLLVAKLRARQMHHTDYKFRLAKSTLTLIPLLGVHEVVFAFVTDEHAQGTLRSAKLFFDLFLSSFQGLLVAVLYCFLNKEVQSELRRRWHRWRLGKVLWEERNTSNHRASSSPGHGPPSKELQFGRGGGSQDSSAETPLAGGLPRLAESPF
# [2] = biological target: T2, GLP-1 receptor (Homo sapiens, UniProt P43220); assay: cAMP synthesis functional assay (firefly luciferase reporter in HEK293 cells), GLP-1 receptor; details: for EC50: GLP-1 Receptor EC50, cAMP luciferase reporter assay as in Example 16; for GLP-1 Receptor relative activity: relative to the standard (Std.) EC50 of the same run
# T2 construct: expressed in transfected cells; host or cells: HEK293
# T2 sequence (P43220 24-463, species assumed): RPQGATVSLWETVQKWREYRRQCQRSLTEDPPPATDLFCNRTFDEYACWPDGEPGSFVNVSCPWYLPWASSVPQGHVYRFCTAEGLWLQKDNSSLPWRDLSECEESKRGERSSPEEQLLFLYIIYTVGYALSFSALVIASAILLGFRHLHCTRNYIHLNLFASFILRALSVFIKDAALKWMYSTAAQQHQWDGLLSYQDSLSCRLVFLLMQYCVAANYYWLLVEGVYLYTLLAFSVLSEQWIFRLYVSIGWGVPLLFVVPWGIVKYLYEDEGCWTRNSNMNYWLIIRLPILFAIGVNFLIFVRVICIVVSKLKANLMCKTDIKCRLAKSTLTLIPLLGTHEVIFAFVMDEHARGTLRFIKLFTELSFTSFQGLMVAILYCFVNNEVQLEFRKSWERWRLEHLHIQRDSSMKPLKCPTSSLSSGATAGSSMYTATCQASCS
# [3] = biological target: T3, GIP receptor (Homo sapiens, UniProt P48546); assay: cAMP synthesis functional assay (firefly luciferase reporter in HEK293 cells), GIP receptor; details: for EC50: GIP Receptor EC50, cAMP luciferase reporter assay as in Example 16; for GIP Receptor relative activity: relative to the standard (Std.) EC50 of the same run
# T3 construct: expressed in transfected cells; host or cells: HEK293
# T3 sequence (P48546 22-466): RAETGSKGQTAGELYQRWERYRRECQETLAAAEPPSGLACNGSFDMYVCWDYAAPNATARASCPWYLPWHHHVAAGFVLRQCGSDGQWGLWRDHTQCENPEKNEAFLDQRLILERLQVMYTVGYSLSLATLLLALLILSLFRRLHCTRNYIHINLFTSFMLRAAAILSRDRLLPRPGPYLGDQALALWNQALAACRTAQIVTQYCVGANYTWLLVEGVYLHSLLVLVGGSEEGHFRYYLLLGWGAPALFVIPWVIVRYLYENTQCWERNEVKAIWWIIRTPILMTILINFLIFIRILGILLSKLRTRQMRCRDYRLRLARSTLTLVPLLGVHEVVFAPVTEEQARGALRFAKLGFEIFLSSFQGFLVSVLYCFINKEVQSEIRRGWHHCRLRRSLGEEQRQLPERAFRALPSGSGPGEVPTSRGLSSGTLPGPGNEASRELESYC
# [4] = tested on: glucagon receptor, GLP-1 receptor or GIP receptor; assay: Agonist profile across receptors assigned from the cAMP reporter assay data; details: assigned from the in vitro EC50 data of Tables 1-4
SMILES,EC50 [1] [nM],Glucagon Receptor relative activity [1] [%],EC50 [2] [nM],GLP-1 Receptor relative activity [2] [%],EC50 [3] [nM],GIP Receptor relative activity [3] [%],receptor activity profile (glucagon / GLP-1 / GIP agonism) [4]
CCCCCCCCCCCCCCCCCC(=O)NCCCC[C@H](NC(=O)[C@@H](NC(=O)[C@H](Cc1ccccc1)NC(=O)[C@H](CCC(=O)O)NC(=O)C(C)(C)NC(=O)[C@H](C)NC(=O)[C@H](C)NC(=O)[C@H](CCC(N)=O)NC(=O)[C@H](CCCCN)NC(=O)[C@H](CC(=O)O)NC(=O)[C@H](CC(C)C)NC(=O)[C@H](Cc1ccc(O)cc1)NC(=O)[C@@H](NC(=O)[C@H](CO)NC(=O)[C@H](Cc1ccc(O)cc1)NC(=O)[C@H](CC(=O)O)NC(=O)[C@H](CO)NC(=O)[C@@H](NC(=O)[C@H](Cc1ccccc1)NC(=O)[C@@H](NC(=O)CNC(=O)[C@H](CCC(=O)O)NC(=O)C(C)(C)NC(=O)[C@@H](N)Cc1ccc(O)cc1)[C@@H](C)O)[C@@H](C)O)[C@@H](C)CC)C(C)C)C(=O)N[C@@H](Cc1c[nH]c2ccccc12)C(=O)N[C@@H](CC(C)C)C(=O)N[C@@H](CC(C)C)C(=O)N[C@@H](C)C(=O)NCC(=O)NCC(=O)N1CCC[C@H]1C(=O)N[C@@H](CO)C(=O)N[C@@H](CO)C(=O)NCC(=O)N[C@@H](C)C(=O)N1CCC[C@H]1C(=O)N1CCC[C@H]1C(=O)N1CCC[C@H]1C(=O)N[C@@H](CO)C(N)=O [mt-267],62,0.07,2.09,0.84,1.31,0.65,"exhibited activity at the GIP, GLP-1, and glucagon receptors"
CC[C@H](C)[C@H](NC(=O)[C@H](CO)NC(=O)[C@H](Cc1ccc(O)cc1)NC(=O)[C@H](CC(=O)O)NC(=O)[C@H](CO)NC(=O)[C@@H](NC(=O)[C@H](Cc1ccccc1)NC(=O)[C@@H](NC(=O)CNC(=O)[C@H](CCC(N)=O)NC(=O)C(C)(C)NC(=O)[C@@H](N)Cc1ccc(O)cc1)[C@@H](C)O)[C@@H](C)O)C(=O)N[C@@H](Cc1ccc(O)cc1)C(=O)N[C@@H](CC(C)C)C(=O)N[C@@H](CC(=O)O)C(=O)N[C@@H](CCCN)C(=O)N[C@@H](CCC(N)=O)C(=O)N[C@@H](C)C(=O)N[C@@H](C)C(=O)NC(C)(C)C(=O)N[C@@H](CCC(=O)O)C(=O)N[C@@H](Cc1ccccc1)C(=O)N[C@H](C(=O)N[C@@H](CC(N)=O)C(=O)N[C@@H](Cc1c[nH]c2ccccc12)C(=O)N[C@@H](CC(C)C)C(=O)N[C@@H](CC(C)C)C(=O)N[C@@H](C)C(=O)NCC(=O)NCC(=O)N1CCC[C@H]1C(=O)N[C@@H](CO)C(=O)N[C@@H](CO)C(=O)NCC(=O)N[C@@H](C)C(=O)N1CCC[C@H]1C(=O)N1CCC[C@H]1C(=O)N1CCC[C@H]1C(=O)N[C@@H](CO)C(=O)N[C@@H](CS)C(N)=O)C(C)C [mt-275],,62.15,0.0068,104.41,,112.10,"exhibited activity at the GIP, GLP-1, and glucagon receptors"
CC[C@H](C)[C@H](NC(=O)[C@H](CO)NC(=O)[C@H](Cc1ccc(O)cc1)NC(=O)[C@H](CC(=O)O)NC(=O)[C@H](CO)NC(=O)[C@@H](NC(=O)[C@H](Cc1ccccc1)NC(=O)[C@@H](NC(=O)CNC(=O)[C@H](CCC(N)=O)NC(=O)C(C)(C)NC(=O)[C@@H](N)Cc1ccc(O)cc1)[C@@H](C)O)[C@@H](C)O)C(=O)N[C@@H](Cc1ccc(O)cc1)C(=O)N[C@@H](CC(C)C)C(=O)N[C@@H](CC(=O)O)C(=O)N[C@@H](CCN)C(=O)N[C@@H](CCC(N)=O)C(=O)N[C@@H](C)C(=O)N[C@@H](C)C(=O)NC(C)(C)C(=O)N[C@@H](CCC(=O)O)C(=O)N[C@@H](Cc1ccccc1)C(=O)N[C@H](C(=O)N[C@@H](CC(N)=O)C(=O)N[C@@H](Cc1c[nH]c2ccccc12)C(=O)N[C@@H](CC(C)C)C(=O)N[C@@H](CC(C)C)C(=O)N[C@@H](C)C(=O)NCC(=O)NCC(=O)N1CCC[C@H]1C(=O)N[C@@H](CO)C(=O)N[C@@H](CO)C(=O)NCC(=O)N[C@@H](C)C(=O)N1CCC[C@H]1C(=O)N1CCC[C@H]1C(=O)N1CCC[C@H]1C(=O)N[C@@H](CO)C(=O)N[C@@H](CS)C(N)=O)C(C)C [mt-276] (H-Y[Aib]QGTFTSDYSIYLD[Dab]QAA[Aib]EFVNWLLAGGPSSGAPPPSC-NH2; N-terminus assumed),,77.65,,107.58,0.008,173.75,"exhibited activity at the GIP, GLP-1, and glucagon receptors"
CC[C@H](C)[C@H](NC(=O)[C@H](CO)NC(=O)[C@H](Cc1ccc(O)cc1)NC(=O)[C@H](CC(=O)O)NC(=O)[C@H](CO)NC(=O)[C@@H](NC(=O)[C@H](Cc1ccccc1)NC(=O)[C@@H](NC(=O)CNC(=O)[C@H](CCC(N)=O)NC(=O)C(C)(C)NC(=O)[C@@H](N)Cc1ccc(O)cc1)[C@@H](C)O)[C@@H](C)O)C(=O)N[C@@H](Cc1ccc(O)cc1)C(=O)N[C@@H](CC(C)C)C(=O)N[C@@H](CC(=O)O)C(=O)N[C@@H](CCCCN)C(=O)N[C@@H](CCC(N)=O)C(=O)N[C@@H](C)C(=O)N[C@@H](C)C(=O)NC(C)(C)C(=O)N[C@@H](CCC(=O)O)C(=O)N[C@@H](Cc1ccccc1)C(=O)N[C@H](C(=O)N[C@@H](CC(N)=O)C(=O)N[C@@H](Cc1c[nH]c2ccccc12)C(=O)N[C@@H](CC(C)C)C(=O)N[C@@H](CC(C)C)C(=O)N[C@@H](C)C(=O)NCC(=O)NCC(=O)N1CCC[C@H]1C(=O)N[C@@H](CO)C(=O)N[C@@H](CO)C(=O)NCC(=O)N[C@@H](C)C(=O)N1CCC[C@H]1C(=O)N1CCC[C@H]1C(=O)N1CCC[C@H]1C(=O)N[C@@H](CO)C(=O)N[C@@H](CCCCN)C(N)=O)C(C)C [mt-280] (H-Y[Aib]QGTFTSDYSIYLDKQAA[Aib]EFVNWLLAGGPSSGAPPPSK-NH2; N-terminus assumed),0.0677,74.74,0.0126,153.17,,159.06,"exhibited activity at the GIP, GLP-1, and glucagon receptors"
CC[C@H](C)[C@H](NC(=O)[C@H](CO)NC(=O)[C@H](CCCCN)NC(=O)[C@H](CC(=O)O)NC(=O)[C@H](CO)NC(=O)[C@@H](NC(=O)[C@H](Cc1ccccc1)NC(=O)[C@@H](NC(=O)CNC(=O)[C@H](CCC(=O)O)NC(=O)C(C)(C)NC(=O)[C@@H](N)Cc1ccc(O)cc1)[C@@H](C)O)[C@@H](C)O)C(=O)N[C@@H](Cc1ccc(O)cc1)C(=O)N[C@@H](CC(C)C)C(=O)N[C@@H](CC(=O)O)C(=O)N[C@@H](CCCCN)C(=O)N[C@@H](CCC(N)=O)C(=O)N[C@@H](C)C(=O)N[C@@H](C)C(=O)NC(C)(C)C(=O)N[C@@H](CCC(=O)O)C(=O)N[C@@H](Cc1ccccc1)C(=O)N[C@H](C(=O)N[C@@H](CC(N)=O)C(=O)N[C@@H](Cc1c[nH]c2ccccc12)C(=O)N[C@@H](CC(C)C)C(=O)N[C@@H](CC(C)C)C(=O)N[C@@H](C)C(=O)NCC(N)=O)C(C)C [mt-285] (H-Y[Aib]EGTFTSDKSIYLDKQAA[Aib]EFVNWLLAG-NH2; N-terminus assumed),12.6,0.23,0.784,0.75,,36.43,exhibited activity at only the GIP receptor
CCCCCCCCCCCCCC(=O)NCCCC[C@H](NC(=O)[C@H](CO)NC(=O)[C@@H]1CCCN1C(=O)[C@@H]1CCCN1C(=O)[C@@H]1CCCN1C(=O)[C@H](C)NC(=O)CNC(=O)[C@H](CO)NC(=O)[C@H](CO)NC(=O)[C@@H]1CCCN1C(=O)CNC(=O)CNC(=O)[C@H](C)NC(=O)[C@H](CC(C)C)NC(=O)[C@H](CC(C)C)NC(=O)[C@H](Cc1c[nH]c2ccccc12)NC(=O)[C@H](CS)NC(=O)[C@@H](NC(=O)[C@H](Cc1ccccc1)NC(=O)[C@H](CCC(=O)O)NC(=O)C(C)(C)NC(=O)[C@H](C)NC(=O)[C@H](C)NC(=O)[C@H](CCC(N)=O)NC(=O)[C@H](CCCCN)NC(=O)[C@H](CC(=O)O)NC(=O)[C@H](CC(C)C)NC(=O)[C@H](Cc1ccc(O)cc1)NC(=O)[C@@H](NC(=O)[C@H](CO)NC(=O)[C@H](Cc1ccc(O)cc1)NC(=O)[C@H](CC(=O)O)NC(=O)[C@H](CO)NC(=O)[C@@H](NC(=O)[C@H](Cc1ccccc1)NC(=O)[C@@H](NC(=O)CNC(=O)[C@H](CCC(N)=O)NC(=O)C(C)(C)NC(=O)[C@@H](N)Cc1ccc(O)cc1)[C@@H](C)O)[C@@H](C)O)[C@@H](C)CC)C(C)C)C(N)=O [mt-286],0.0612,84.80,0.0225,52.00,0.0159,68.55,"exhibited activity at the GIP, GLP-1, and glucagon receptors"
